Experimental data: patent US9120787B2, “HIV replication inhibitors” (priority 2011, dated 2015)

How the values were obtained:
HIV-1Ba-L [1] = assay: Inhibition of virus replication in MAGI-CCR5 cells (β-galactosidase reporter); assay type: cell-based; conditions: HIV-1Ba-L in MAGI-CCR5 cells; for IC50: Human immunodeficiency virus 1, 48 hours, β-galactosidase reporter expression, read-out: IC50
Experimental: (§1) The anti-viral activity of dihydropyrimidines was shown by inhibition of virus replication in MAGI-CCR5 cells. MAGI-CCR5 cells are derived from HeLa-CD4-LTR-β-galactosidase cells. The cells have been engineered to express high levels of CD4 and CCR5 and contain one copy of the HIV-1 LTR promoter driving expression of the β-galactosidase gene upon HIV-1 Tat transactivation. On the day preceding the assay, the cells were plated at 1.0×10^4 cells per well and maintained at 37° C. and 5% CO2 in a humidified incubator. Total cell count and viability was visually assessed using a hemacytometer and trypan blue exclusion.
Compounds were evaluated at six concentrations (triplicate wells/concentration). On the day of assay setup, compound dilutions were prepared at two-times (2×) the final concentrations. Media was decanted and wells were replenished with 50 μl of 2× compounds, followed by the addition of 50 μl of diluted virus. Identical uninfected assays were prepared for parallel cytotoxicity testing.
Evaluation of Dihydropyrimidines vs. HIV-1Ba-L in MAGI-CCR5 Cells

[2] = Cytotoxicity by MTS staining in uninfected MAGI-CCR5 cells; assay type: cell-based; conditions: human, read-out: TC50
Experimental: as §1, with “exclusion. Compounds were evaluated at six concentrations (triplicate wells/concentration). On the day of assay setup, compound dilutions were prepared at two-times (2×) the final concentrations. Media was decanted and wells were replenished with 50 μl of 2× compounds, followed by the addition of 50 μl of diluted virus. Identical uninfected assays were prepared for parallel cytotoxicity testing.” for “exclusion.”

HIV-1Ba-L [3] = assay: HIV-1Ba-L replication in PBMCs (supernatant RT end-point); conditions: for TI (TC50/IC50): HIV-1Ba-L in PBMCs; for IC50: Human immunodeficiency virus 1, PBMC, 168 h
Experimental: Evaluation of Dihydropyrimidines vs. HIV-1Ba-L in Peripheral Blood Mononuclear Cells (PBMCs)
Cultures of pooled phytohemagglutinin stimulated peripheral blood mononuclear cells (PBMC) were seeded into a 96-well plate at plating density of 5×10^4 cells/well. Compounds were serially diluted into media in ½-log increments using a high test of […] and […] of each concentration (nine total concentrations). Cells were infected with HIV strains HIV-1Ba-L and NL4-3 at an MOI=0.1. The PBMCs were cultured for seven days in an humidified incubator maintained at 37° C., 5% CO2 atmosphere. At the assay end-point, the supernatant was collected and analyzed for reverse transcriptase activity. For the RT assay, tritiated thymidine triphosphate (3H-TTP, 80 Ci/mmol) was diluted 1:1 dH2O:Ethanol at 1 mCi/ml. Poly rA:oligo dT template:primer was prepared as a stock solution by combining 150 μl poly rA (20 mg/ml) with 0.5 mL oligo dT (20 units/ml) and 5.35 ml sterile dH2O followed by aliquoting (1.0 ml) and storage at −20° C. The RT reaction buffer contained of 125 ml 1.0 M EGTA, 125 ml dH2O, 125 ml 20% Triton X100, 50 ml 1.0 M Tris (pH 7.4), 50 ml 1.0 M DTT, and 40 ml 1.0 M MgCl2. The final reaction mixture was prepared by combining 1 part 3H-TTP, 4 parts dH2O, 2.5 parts poly rA:oligo dT stock and 2.5 parts reaction buffer. To each well, ten microliters of the reaction mixture and 15 μl of virus containing supernatant were added. The plates were incubated at 37° C. for 60 minutes. Following incubation, the reaction volume was spotted onto DE81 filter-mats, washed 5 times for 5 minutes each in a 5% sodium phosphate buffer or 2×SSC. […] were washed 2 times for 1 minute each in distilled water, 2 times for 1 minute each in 70% ethanol, and then dried. Incorporated radioactivity (counts per minute, CPM) was quantified using standard liquid scintillation techniques.

[4] = Cytotoxicity by MTS staining in PBMCs; assay type: cell-based; conditions: human, peripheral blood mononuclear cells (PBMC), MTS staining, read-out: TC50
Experimental: Cytotoxicity was assessed by MTS staining. At assay end-point, PBMC were stained with the addition of […] of the soluble tetrazolium-based dye MTS to determine cell viability and quantify compound toxicity. The plates were incubated 4 to 6 hrs at 37° C. Following incubation, the activity was assessed by reading absorbance values at 490/650 nm.

Compound | TI (TC50/IC50) (HIV-1Ba-L [1]) | IC50 (HIV-1Ba-L [1]) [µM] | CC50 at 48 h [2] [µM] | TI (TC50/IC50) (HIV-1Ba-L [3]) | IC50 (HIV-1Ba-L [3]) [µM] | CC50 at 7 days [4] [µM]
COc1ccc(C2NC(=O)NC(C)=C2c2nc(-c3ccc(C#N)cc3)cs2)cn1 (stereo not drawn) [Example 25] | A (A = TI (TC50/IC50) ≧ 100.0) | < 1 | ≥ 100 | A (A = TI (TC50/IC50) ≧100.0) | < 1 | ≥ 100
COc1cncc(C2NC(=O)NC(C)=C2c2nc(-c3ccc(C#N)cc3)cs2)c1 (stereo not drawn) [Example 26] | D (D < 10.0) | 5 to 100 | ≥ 100 | C (C < 50.0-10.0) | 1 to 5 | ≥ 100
COc1cccc(C2NC(=O)NC(C)=C2c2nc(-c3ccc(C#N)cc3)cs2)n1 (stereo not drawn) [Example 28] | B (B < 100.0-50.0) | 1 to 5 | ≥ 100 | B (B < 100.0-50.0) | 1 to 5 | ≥ 100
CC1=C(c2nc(-c3ccc(C#N)cc3)cs2)C(c2cccnc2F)NC(=O)N1 (stereo not drawn) [Example 29] | A (A = TI (TC50/IC50) ≧ 100.0) | < 1 | ≥ 100 | A (A = TI (TC50/IC50) ≧100.0) | < 1 | ≥ 100
CC1=C(c2nc(-c3ccc(C#N)cc3)cs2)C(c2ccncc2F)NC(=O)N1 (stereo not drawn) [Example 30] | D (D < 10.0) | > 100 | ≥ 100 | D (D < 10.0) | > 100 | ≥ 100
CC1=C(c2nc(-c3ccccc3)cs2)C(c2cccc(O)c2)NC(=O)N1 (stereo not drawn) [Example 33] | D (D < 10.0) | 5 to 100 | ≥ 100 | D (D < 10.0) | 5 to 100 | 50 to 100
CC1=C(c2nc(-c3ccc(Br)cc3)cs2)C(c2cccc(O)c2)NC(=O)N1 (stereo not drawn) [Example 35] | C (C < 50.0 to 10.0) | 1 to 5 | 50 to 100 | C (C < 50.0-10.0) | 1 to 5 | 50 to 100
CC1=C(c2nc(-c3ccc4ccccc4c3)cs2)C(c2cccc(O)c2)NC(=O)N1 (stereo not drawn) [Example 36] | D (D < 10.0) | 5 to 100 | 50 to 100 | D (D < 10.0) | 5 to 100 | < 50
CC1=C(c2nc(-c3cccc(O)c3)cs2)C(c2cccc(O)c2)NC(=O)N1 (stereo not drawn) [Example 38] | D (D < 10.0) | 5 to 100 | 50 to 100 | D (D < 10.0) | 5 to 100 | 50 to 100
COc1ccc(-c2csc(C3=C(C)NC(=O)NC3c3cc(Br)cs3)n2)cc1 (stereo not drawn) [Example 40] | D (D < 10.0) | > 100 | ≥ 100 | D (D < 10.0) | 5 to 100 | ≥ 100
COc1ccc(-c2csc(C3=C(C)NC(=O)NC3c3ccc(-c4ccccc4)cc3)n2)cc1 (stereo not drawn) [Example 43] | D (D < 10.0) | > 100 | ≥ 100 | D (D < 10.0) | 5 to 100 | ≥ 100
CC1=C(c2nc(-c3ccc(F)cc3)cs2)C(c2cccc(O)c2)NC(=O)N1 (stereo not drawn) [Example 44] | C (C < 50.0 to 10.0) | 1 to 5 | 50 to 100 | D (D < 10.0) | 5 to 100 | 50 to 100
CC1=C(c2nc(-c3ccc(C#N)cc3)cs2)C(c2ccc(O)cc2)NC(=O)N1 (stereo not drawn) [Example 48] | A (A = TI (TC50/IC50) ≧ 100.0) | < 1 | ≥ 100 | A (A = TI (TC50/IC50) ≧100.0) | < 1 | ≥ 100
CC1=C(c2nc(-c3ccc(C#N)cc3)cs2)C(c2cccc(F)c2)NC(=O)N1 (stereo not drawn) [Example 50] | C (C < 50.0 to 10.0) | 1 to 5 | ≥ 100 | A (A = TI (TC50/IC50) ≧100.0) | < 1 | ≥ 100
CC1=C(c2nc(-c3ccc(C#N)cc3)cs2)C(c2ccc(Oc3ccccc3)cc2)NC(=O)N1 (stereo not drawn) [Example 59] | A (A = TI (TC50/IC50) ≧ 100.0) | < 1 | ≥ 100 | A (A = TI (TC50/IC50) ≧100.0) | < 1 | ≥ 100
COc1ccc(C2NC(=O)NC(C)=C2c2nc(-c3ccc(C#N)cc3)cs2)cc1 (stereo not drawn) [Example 64] | B (B < 100.0-50.0) | < 1 | < 50 | A (A = TI (TC50/IC50) ≧100.0) | < 1 | ≥ 100
CC1=C(c2nc(-c3cccc(C#N)c3)cs2)C(c2cccc(O)c2)NC(=O)N1C (stereo not drawn) [Example 68] | D (D < 10.0) | 5 to 100 | ≥ 100 | D (D < 10.0) | 5 to 100 | 50 to 100
CC1=C(c2nc(-c3ccc(C#N)cc3)cs2)C(c2cccc(O)c2)NC(=O)N1C (stereo not drawn) [Example 69] | B (B < 100.0-50.0) | 1 to 5 | ≥ 100 | C (C < 50.0-10.0) | 1 to 5 | ≥ 100
CC1=C(c2nc(-c3ccc(C#N)cc3)cs2)C(c2cccc(C(F)(F)F)c2)NC(=O)N1 (stereo not drawn) [Example 71] | B (B < 100.0-50.0) | 1 to 5 | ≥ 100 | C (C < 50.0-10.0) | 5 to 100 | ≥ 100
